We go through eight compounds from patent publication US20240000899A1, “THERAPEUTIC USEFUL AGAINST ANTIMICROBIAL RESISTANT AGENTS” (priority 2022, published 2024).

Data set [1] has as its system HepG2 (human liver) cell culture. The data set is described as follows: Modified cytotoxicity protocol: residual anions of neutralized acid formulations. Format: cell-based. The settings on record: for Cytotoxicity of residual anions, conclusion in words: pH 1.5. Here is the method:
Purpose: A modified cytotoxicity protocol was developed focusing on the cytotoxicity of the residual anions of the acid formulations. Twenty different acids formulations were tested, each in the range of 1.95 to 1.5 pH. Each formulation was diluted with distilled water to hydronium concentrations of 11.22 mM (pH 1.95), […] (pH 1.85), 19.95 mM (pH 1.70), 25.12 mM (pH 1.60), and 31.62 mM (pH 1.50). It was then titrated with NaOH to 7.4 pH and applied to HepG2 (human liver) cell culture in triplicate replicates.

The conditions of data set [2]: 4.0% w/v concentration; cited from earlier work.
Data set [3] deals with Staphylococcus aureus ATCC 6538. As to the kind of experiment: Modified ASTM E2315 test of low pH therapeutic with AMPs, acid neutralized after one minute. Format: cell-based. The text has this:
Since the reaction speed of the two different MOAs are different, a modified test protocol was developed, which is summarized below. • a. […] Heretofore, it has been believed that AMPs are unstable in low pH environments. Mixture of dry powder immediately prior to use is believed to address concerns regarding minimization of in vitro stability. • b. The prepared AMP solution was then mixed with the bacteria containing media. After one minute the acid solution was neutralized. This simulates the short antimicrobial period for the elevated proton concentration in vivo. The bacteria population was measured to determine efficacy after one minute. • c. The AMPs retained in the solution are not expected to stop their antimicrobial activity after acid neutralization, so a second bacteria population measurement was made after 24 hours. [table]

For data set [4] the following is noted: aerosolized, pH range of 1.5 to 2.0.
Source text: Additionally, the low pH acid formulation needs to provide no or minimum deleterious effect to host tissues.
The next data set has as its system human coronavirus. The note with it: therapeutic concentration (~1.7 pH), in vitro suspension tests.

For the compound Hydroxyacetic +. Sulfuric [Example 8], in data set [1], the “% Viability @ pH 1.9” value is given as 72.7%.

With Isoacorbic + sulfuric [Example 17], in data set [1], the “% Viability @ pH 1.9” value came out at 89.3%. With Isoascorbic + HCl [Example 18], in data set [1], the “Cytotoxicity of residual anions, conclusion in words” value was “least toxic” and the “% Viability @ pH 1.9” value was found to be 104%. Turning to `OB(O)O` [Boric acid], the pH in data set [2] is recorded as 4.8-5.0. Regarding LL-37 [Example 38, reference compound], the “1-min Efficacy (log)” value in data set [3] (bacteria population after one minute, then acid neutralized, no soiling, single-replicant) came to 4.15 log. Besides, the “Efficacy on S. aureus, conclusion in words” value in data set [3] (comparison of Table 3 examples) was “highly effective”. Moreover, in data set [3] (second bacteria population measurement after 24 hours, acid neutralized after one minute), the “24-hour Efficacy (log)” value is reported as more than 6.45 log.

On to `O=S(=O)(O)O` [sulfuric acid], for which the “Harm to host respiratory tissues in vivo” value in data set [4] was “not harmful”. Also, the Cytotoxicity entry in the data set with mouse fibroblast cells was “no cytotoxicity”. Besides, in the data set on human coronavirus, the “Time to inactivating and/or reducing concentration of human coronavirus” value is not above 1 min. Consider Hydroxyacetic + HCl [Example 15], for which the “% Viability @ pH 1.9” value in data set [1] is reported as 117%. As for Sulfuric [Example 3], in data set [1], the “Cytotoxicity of residual anions, conclusion in words” value is “least toxic” and the “% Viability @ pH 1.9” value turned out to be 140%.
